Read-outs that look alike come from different tables or passages of the source. No end group written: not given here.
Experiments:
[1] = test system: SDF-1α induced THP-1 migration; test: THP-1 trans-well migration assay, SDF-1α as chemoattractant; assay type: cell-based, human; conditions: for % inhibition at 100 μM versus SDF-1α, THP-1 migration: n.s. = no statistically significant inhibition
Procedure, shortened: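 5×10^4 THP-1 cells with serially diluted peptide in upper chamber, 5 µm filter, recombinant human chemokine 50 ng/ml (5.9 nM) in lower chamber. Incubated 4 h at 37 °C. Migrated cells counted by MTT staining, A595 read against a THP-1 standard curve.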

[2] = test system: TGFβ1 induced THP-1 migration; test: THP-1 trans-well migration assay, TGFβ1 as non-chemokine control; assay type: cell-based, human; conditions: for ED50 versus TGFβ1, inhibition of THP-1 migration: n.s. = no statistically significant inhibition (p > 0.05); for % inhibition at 100 μM versus TGFβ1, THP-1 migration: n.s. = no statistically significant inhibition
Experimental: Any method suitable for counting cells can be used, for example, counting with a hemocytometer, incubation of the cells with MTT (see above), or FACS analysis. A negative control assay is also performed, using TGF-β or another non-chemokine chemoattractant (e.g., IL1β or TNFα). To assess whether the agent is cytotoxic, the same concentrations of agent are incubated with THP-1 cells. Agents which 1) are not cytotoxic at levels which inhibit migration, 2) are ineffective at inhibiting the negative control-induced migration, and 3) reduce or inhibit chemokine-induced THP-1 migration, are agents which fall within the scope of the invention.
Chemotaxis was induced in a 96-well disposable chemotaxis chamber fitted with a […] polycarbonate filter (PVP free, ChemoTX, Neuroprobe Inc., Cabin John). […] The framed filter was aligned with the holes in the corner of the filter frame and placed over the wells. […] Peptides were dissolved in Milli Q water and then serially diluted in culture medium. In most cases, the serially diluted peptides were added to the upper compartment of the chemotaxis chamber. The chamber was incubated at 37° C. in a humidified atmosphere of 5% CO2 for 4 hours.
After incubation, the cells were gently removed from the top of the filter with a pipette, 20 μl of 20 mM EDTA in PBS was added into each top well, and the mixture was incubated for 20 minutes at 4° C. The filter was then carefully flushed with media using a gentle flow, and removed. […] The curve was based on a two-fold dilution series of THP-1 cells (top standard 100,000 cells in 29 μl). […] The media was carefully aspirated from each well, and the converted dye was solubilized by 20 μl of DMSO.

[3] = n.s. = no statistically significant inhibition (p > 0.05)

Compound | EC50 ([1]; Homo sapiens, THP-1, read-out: ED50, SDF1α chemotaxis assay) [µM] | ED50 versus SDF-1α, inhibition of THP-1 migration [1, 3] | percentage inhibition of migration induced by SDF1α ([1]; tripeptide at 100 μM, mean ± range, dash = no statistically significant reduction in migration) [%] | ED50 versus TGFβ1, inhibition of THP-1 migration [2] | % inhibition at 100 μM versus SDF-1α, THP-1 migration [1] | EC50 ([1]; n.s. = no statistically significant inhibition (p > 0.05), read-out: ED50 versus SDF-1α, inhibition of THP-1 migration) [µM] | % inhibition at 100 μM versus TGFβ1, THP-1 migration [2] | SDF1a ED-50 ([1]; ns = not significantly different from control)
C=CCCCCCCCCC(=O)N[C@H]1CCC(=O)NC1=O [A-I (NR58.4), [3S]-3-(undec-10-enoylamino)piperidine-2,6-dione] | 0.008 | – | – | – | – | – | – | –
NCCCC[C@H](NC(=O)[C@H](CCC(N)=O)NC(=O)[C@@H](N)CCCCN)C(=O)O [KQK] | – | n.s. | 29 ± 1 | n.s. | – | – | – | –
EICADPKQKWVQ [peptide 3(1-12)[MCP-1]] | – | – | – | n.s. | 107% | 10 | n.s. | –
SYRRITSSKCPKEAV [peptide 2(1-15)[MCP-1]] | – | n.s. | – | n.s. | n.s. | – | n.s. | ns

From patent US7989466B2, “Methods to inhibit or augment an inflammatory response” (Cambridge Enterprise Limited, priority 1999, dated 2011)
